Test results as given in patent US12257248B2, “Bronchodilators for treating obstructive lung disease” (University of South Florida, priority 2020, dated 2025).
Like-named read-outs stand apart in the source and are kept apart here.

Columns and labels:
D9-HASM cells = test: [Ca2+]i stimulation screening assay (Fluo-4) in D9-HASM cells; type: cell-based, human; details: for EC50: Fluo-4, mean±SE from 4-8 experiments, read-out: EC50 ([Ca^2+]i stimulation); for Emax / Rmax (% ionomycin): maximal [Ca2+]i response normalized to ionomycin 2.0 μM; for Emax: read-out: Rmax (% ionomycin)
Protocol: Cultured D9 telomerase reverse transcriptase immortalized HASM (D9-HASM) cells were utilized for the [Ca^2+]i screening assays. Cells were seeded onto 96 well plates and loaded with Fluo-4 direct. The [Ca^2+]i responses to multiple concentrations of potential agonists were determined as a measure of receptor activation. Control cells were exposed to the non-specific ionophore ionomycin at 2.0 μM (a maximal effective concentration, FIG. 4). Results from TAS2R agonist studies were normalized to the ionomycin response in order to compare the maximal responses (Rmax) between agonists. The concentration-response data were fit to a four component logistic regression model (sigmoid curve) using iterative non-linear regression methods to determine the EC50 and Rmax. The structures of the previously identified agonist termed T5-1, and 18 derivatives (denoted as T5-2 through T5-19) are shown in FIG. 2. Representative [Ca^2+]i responses to these compounds are shown in FIG. 4, and mean results from multiple concentration-response experiments are shown in FIG. 3. Table 1 summarizes the results in terms of potency (EC50) and efficacy (Rmax), with statistical comparisons to T5-1.

primary HASM cells = test: HASM cell relaxation by magnetic twisting cytometry (MTC); type: cell-based, human; details: for Relaxation (% basal): primary HASM cells passages 5-7, non-asthmatic donor, MTC, single concentration 500 μM; for rank of HASM cell relaxation response (FIG. 7): 500 μM, added at 60 seconds, 200-400 cells per compound
Protocol: FIG. 7 depicts HASM cell relaxation responses to selected compounds. Compounds were studied at a concentration of 500 μM and were added to the culture media at the 60 second time point (arrow). Results are from measurements of 200-400 cells per compound. *, P<0.01 vs the T5-1 reference response.
To correlate the [Ca^2+]i responses of the compounds to relevant physiologic function, we turned to measurements of single-cell mechanics in HASM cells using magnetic twisting cytometry (MTC) as previously described. Here, cultured primary HASM cells at passages 5-7 derived from a non-asthmatic donor lung were utilized. […] Positive controls (FIG. 6) included the β-agonists albuterol (partial agonist), formoterol (full agonist) and forskolin, which increases cAMP by direct activation of adenylyl cyclase.

| EC50 (D9-HASM cells; Homo sapiens) [µM] | SMILES | Emax (D9-HASM cells; Homo sapiens) [%] | Relaxation (% basal) (primary HASM cells) | rank of HASM cell relaxation response (FIG. 7) (primary HASM cells) | EC50 (D9-HASM cells) [µM] | Rmax (% ionomycin) (D9-HASM cells) |
| --- | --- | --- | --- | --- | --- | --- |
| 29.7 ± 5.57 | c1cnc2c(c1)ccc1cccnc12 [T5-1, 1,10-Phenanthroline, reference compound] | 149 ± 10.2 | 10.8 ± 2.17 | – | – | – |
| 2.05 ± 0.2 | Cc1c(C)c2cccnc2c2ncccc12 [T5-7, 5,6-Dimethyl-1,10-phenanthroline] | 163 ± 36.4 | 9.0 ± 2.19 | – | – | – |
| 4.6 ± 0.42 | Nc1cc2cccnc2c2ncccc12 [T5-9, 1,10-Phenanthrolin-5-amine] | 176 ± 14.2 | 7.2 ± 1.95 | – | – | – |
| 4.35 ± 0.71 | Brc1cc2cccnc2c2ncccc12 [T5-10, 5-Bromo-1,10-phenanthroline] | 182 ± 25.7 | 14.4 ± 1.93 | – | – | – |
| 12.1 ± 1.99 | Cc1cc2cccnc2c2ncccc12 [T5-12, 5-Methyl-1,10-phenanthroline] | 181 ± 24.6 | – | – | – | – |
| 36 ± 3.85 | O=[N+]([O-])c1cc2cccnc2c2ncccc12 [T5-13, 5-Nitro-1,10-phenanthroline] | 134 ± 11.9 | 12.8 ± 2.00 | – | – | – |

More lines, now with the values behind:

| SMILES | EC50 (D9-HASM cells; Homo sapiens) [µM] | Emax (D9-HASM cells; Homo sapiens) [%] | Relaxation (% basal) (primary HASM cells) | rank of HASM cell relaxation response (FIG. 7) (primary HASM cells) | EC50 (D9-HASM cells) [µM] | Rmax (% ionomycin) (D9-HASM cells) |
| --- | --- | --- | --- | --- | --- | --- |
| c1ccc(-c2ccccn2)nc1 [T5-2, 2,2′-Bipyridine] | – | 16.4 ± 4.48 | −3.2 ± 1.67 | – | – | – |
| c1cnc2c(c1)ccc1ncccc12 [T5-3, 1,7-Phenanthroline] | 24.9 ± 4.58 | 121 ± 16.7 | 34.8 ± 1.36 | – | – | – |
| c1cnc2ccc3ncccc3c2c1 [T5-4, 4,7-Phenanthroline] | – | 15.4 ± 3.37 | 15.3 ± 1.48 | – | – | – |
| Cc1ccc2ccc3ccc(C)nc3c2n1 [T5-5, 2,9-Dimethyl-1,10-phenanthroline] | 33.3 ± 6.4 | 143 ± 13.1 | 12.0 ± 1.47 | – | – | – |
| Cc1ccnc2c1ccc1c(C)ccnc12 [T5-6, 4,7-Dimethyl-1,10-phenanthroline] | 1.39 ± 0.19 | 147 ± 16.7 | 5.3 ± 1.95 | – | – | – |
| O=C1C(=O)c2cccnc2-c2ncccc21 [T5-8, 1,10-Phenanthroline-5,6-dione] | 0.12 ± 0.05 | 199 ± 20.2 | 50.2 ± 2.79 | greatest degree of relaxation | – | – |
| Clc1cc2cccnc2c2ncccc12 [T5-11, 5-Chrolo-1,10-phenanthroline] | – | – | 18.0 ± 2.13 | then 18 and 11 | 11.1 ± 2 | 183 ± 7.3 |
| c1cnc2c(c1)c1nccnc1c1cccnc12 [T5-14, Pyrazino[2,3-f][1,10]phenanthroline] | 147 ± 2.26 | 34.5 ± 15.1 | 6.1 ± 1.67 | – | – | – |
| COc1c(OC)c2cccnc2c2ncccc12 [T5-15, 5,6-Dimethoxy-1,10-phenanthroline] | 7.48 ± 0.78 | 127 ± 16.1 | 26.7 ± 1.65 | then 15 | – | – |
| CCc1c(CC)c2cccnc2c2ncccc12 [T5-16, 5,6-Diethyl-1,10-phenanthroline] | 4.05 ± 0.8 | 183 ± 14.7 | – | – | – | – |
| C=C(C)c1c(C(=C)C)c2cccnc2c2ncccc12 [T5-17, 5,6-di(prop-1-en-2yl)-1,10-phenanthroline] | 25.5 ± 7.06 | 113 ± 19 | 13.5 ± 2.59 | – | – | – |
| O=C1C(=O)c2ccccc2-c2ccccc21 [T5-18, 9,10-Phenanthrenequinone] | 5.08 ± 1.37 | 153 ± 5.2 | 20.0 ± 2.00 | then 18 and 11 | – | – |
| Cc1ccnc(-c2cc(C)ccn2)c1 [T5-19, 4,4′-Dimethyl-2,2′-dipyridyl] | – | – | – | – | 60.6 ± 9.13 | 58.9 ± 2.95 |
